From ChEMBL document CHEMBL1255345, “Efficacies of ceftobiprole medocaril and comparators in a rabbit model of osteomyelitis due to methicillin-resistant Staphylococcus aureus” (Antimicrob Agents Chemother, 2008) come the findings set out here.

The subject of data set [1] is Staphylococcus aureus. The experiment in a line: Antimicrobial activity against Staphylococcus aureus 168-1 isolated from osteomyelitis patient by broth macrodilution method. Format: functional.
For data set [2], the system named is Staphylococcus aureus. The experiment in a line: Antimicrobial activity against methicillin-resistant Staphylococcus aureus infected in New Zealand rabbit osteomyelitis model assessed as bacterial count per gram of tibial matrix at 60 mg/kg, po administered every 8 hrs for 4 weeks measured on week 8 postinfection (reference value: 1.04 +/- 2.63 CFU/g). The arrangement: dose 60 mg/kg. It counts as functional, organism-based.

Data set [3] concerns Staphylococcus aureus. The experiment in a line: Antimicrobial activity against methicillin-resistant Staphylococcus aureus infected in New Zealand rabbit osteomyelitis model assessed as improvement in rate of bone reconstruction at 60 mg/kg, po administered every 8 hrs for 4 weeks measured on week 6 postinfection radiographic analysis. It counts as functional, organism-based. The arrangement: dose 60 mg/kg.

Data set [4] has as its system Staphylococcus aureus. The experiment in a line: Antimicrobial activity against methicillin-resistant Staphylococcus aureus infected in New Zealand rabbit osteomyelitis model assessed as improvement in extent of bone remodeling at 60 mg/kg, po administered every 8 hrs for 4 weeks measured on week 6 postinfection radiographic analysis. Format: functional, organism-based. The arrangement: dose 60 mg/kg.

Data set [5] in a line: AUC in New Zealand rabbit osteomyelitis model at 40 mg/kg, sc administered every 6 hrs for 4 days. The arrangement: dose 40 mg/kg, route subcutaneous. Conditions: in vivo. It counts as ADME, organism-based, Oryctolagus cuniculus.
Data set [6] deals with Staphylococcus aureus. The experiment in a line: Antimicrobial activity against methicillin-resistant Staphylococcus aureus infected in New Zealand rabbit osteomyelitis model assessed as bacterial count per gram of tibial marrow at 60 mg/kg, po administered every 8 hrs for 4 weeks measured on week 8 postinfection (reference value: 1.04 +/- 2.63 CFU/g). Format: functional, organism-based. The arrangement: dose 60 mg/kg.

For data set [7], the system named is Oryctolagus cuniculus. The experiment in a line: Toxicity in methicillin-resistant Staphylococcus aureus-infected New Zealand rabbit osteomyelitis model assessed as body weight at 60 mg/kg, po administered every 8 hrs for 4 weeks measured on week 2 postinfection (reference value: 2.43 +/- 0.15 kg). Conditions: in vivo.
Data set [8] relates to Oryctolagus cuniculus. The experiment in a line: Toxicity in methicillin-resistant Staphylococcus aureus-infected New Zealand rabbit osteomyelitis model assessed as body weight at 60 mg/kg, po administered every 8 hrs for 4 weeks measured on week 6 postinfection (reference value: 2.43 +/- 0.15 kg). Conditions: in vivo.
In data set [9] the test system is Oryctolagus cuniculus. The experiment in a line: Cmin in New Zealand rabbit at 20 mg/kg, sc administered every 6 hrs for 4 days measured after 1 hr post first dose by RP-HPLC/MS/MS. The arrangement: dose 20 mg/kg, route subcutaneous. Format: ADME, organism-based. To be noted: in vivo, 1 h.
Data set [10] deals with Oryctolagus cuniculus. The experiment in a line: Toxicity in methicillin-resistant Staphylococcus aureus-infected New Zealand rabbit osteomyelitis model assessed as body weight at 60 mg/kg, po administered every 8 hrs for 4 weeks measured on week 4 postinfection (reference value: 2.43 +/- 0.15 kg). To be noted: in vivo.
For data set [11], the system named is Staphylococcus aureus. The experiment in a line: Antimicrobial activity against methicillin-resistant Staphylococcus aureus infected in New Zealand rabbit osteomyelitis model assessed as improvement in rate of bone reconstruction at 60 mg/kg, po administered every 8 hrs for 4 weeks measured on week 8 postinfection radiographic analysis. The arrangement: dose 60 mg/kg. It counts as functional, organism-based.

Data set [12] relates to Oryctolagus cuniculus. The experiment in a line: Toxicity in methicillin-resistant Staphylococcus aureus-infected New Zealand rabbit osteomyelitis model assessed as body weight at 60 mg/kg, po administered every 8 hrs for 4 weeks measured on week 8 postinfection (reference value: 2.43 +/- 0.15 kg). To be noted: in vivo.
For data set [13], the system named is Staphylococcus aureus. The experiment in a line: Antimicrobial activity against methicillin-resistant Staphylococcus aureus infected in New Zealand rabbit osteomyelitis model assessed as improvement in extent of bone remodeling at 60 mg/kg, po administered every 8 hrs for 4 weeks measured on week 8 postinfection radiographic analysis. It counts as functional, organism-based. The arrangement: dose 60 mg/kg.

The nature of data set [14]: Cmax in New Zealand rabbit osteomyelitis model at 40 mg/kg, sc administered every 6 hrs for 4 days. Format: ADME, organism-based, Oryctolagus cuniculus. The arrangement: dose 40 mg/kg, route subcutaneous. Conditions: in vivo.
In data set [15] the test system is Staphylococcus aureus. The experiment in a line: Antimicrobial activity against methicillin-resistant Staphylococcus aureus infected in New Zealand rabbit osteomyelitis model assessed as improvement in extent of bone remodeling at 60 mg/kg, po administered every 8 hrs for 4 weeks measured on week 2 postinfection radiographic analysis. Format: functional, organism-based. The arrangement: dose 60 mg/kg.

Data set [16] can be described thus: AUC in methicillin-resistant Staphylococcus aureus-infected New Zealand rabbit osteomyelitis model at 60 mg/kg, po after 24 hrs. It counts as ADME, organism-based, Oryctolagus cuniculus. The arrangement: time < 24 hr, dose 60 mg/kg, route oral. To be noted: in vivo.
Data set [17] concerns Staphylococcus aureus. The experiment in a line: Antimicrobial activity against methicillin-resistant Staphylococcus aureus infected in New Zealand rabbit osteomyelitis model assessed as improvement in extent of bone remodeling at 30 mg/kg, sc administered every 12 hrs for 4 weeks measured on week 2 postinfection radiographic analysis. Format: functional, organism-based. The arrangement: dose 30 mg/kg.

Data set [18] deals with Staphylococcus aureus. The experiment in a line: Antimicrobial activity against methicillin-resistant Staphylococcus aureus infected in New Zealand rabbit osteomyelitis model assessed as bacterial count per gram of tibial matrix at 30 mg/kg, sc administered every 12 hrs for 4 weeks measured on week 8 postinfection (reference value: 1.04 +/- 2.63 CFU/g). To be noted: route subcutaneous. It counts as functional.

Data set [19] deals with Staphylococcus aureus. The experiment in a line: Antimicrobial activity against methicillin-resistant Staphylococcus aureus infected in New Zealand rabbit osteomyelitis model assessed as improvement in rate of bone reconstruction at 30 mg/kg, sc administered every 12 hrs for 4 weeks measured on week 2 postinfection radiographic analysis. The arrangement: dose 30 mg/kg. It counts as functional, organism-based.

Data set [20] relates to Staphylococcus aureus. The experiment in a line: Antimicrobial activity against methicillin-resistant Staphylococcus aureus infected in New Zealand rabbit osteomyelitis model assessed as improvement in extent of bone remodeling at 30 mg/kg, sc administered every 12 hrs for 4 weeks measured on week 6 postinfection radiographic analysis. It counts as functional, organism-based. The arrangement: dose 30 mg/kg.

For data set [21], the system named is Staphylococcus aureus. The experiment in a line: Antimicrobial activity against methicillin-resistant Staphylococcus aureus infected in New Zealand rabbit osteomyelitis model assessed as improvement in rate of bone reconstruction at 30 mg/kg, sc administered every 12 hrs for 4 weeks measured on week 6 postinfection radiographic analysis. Format: functional, organism-based. The arrangement: dose 30 mg/kg.

The nature of data set [22]: Ratio of AUC to MIC in methicillin-resistant Staphylococcus aureus infected New Zealand rabbit model osteomyelitis at 30 mg/kg, sc administered every 12 hrs for 4 weeks. Format: functional. To be noted: route subcutaneous.
Data set [23] relates to Staphylococcus aureus. The experiment in a line: Antimicrobial activity against methicillin-resistant Staphylococcus aureus infected in New Zealand rabbit osteomyelitis model assessed as bacterial count per gram of tibial marrow at 30 mg/kg, sc administered every 12 hrs for 4 weeks measured on week 8 postinfection (reference value: 1.12 +/- 10^9 CFU/g). It counts as functional. Conditions: route subcutaneous.

The subject of data set [24] is Staphylococcus aureus. The experiment in a line: Antimicrobial activity against methicillin-resistant Staphylococcus aureus infected in New Zealand rabbit osteomyelitis model assessed as improvement in rate of bone reconstruction at 30 mg/kg, sc administered every 12 hrs for 4 weeks measured on week 8 postinfection radiographic analysis. It counts as functional, organism-based. The arrangement: dose 30 mg/kg.

Molecules are shown by their SMILES. In brackets after ≈: the same amount, converted by molar mass. Activity calls are given as the source filed them.

`CC(=O)NC[C@H]1CN(c2ccc(N3CCOCC3)c(F)c2)C(=O)O1` [LINEZOLID]: in the data set with Staphylococcus aureus [1], the MBC (usually the smallest concentration meeting the test's criterion for killing) was 12.5 µg/mL (≈ 37.1 µM). The MIC – broadly, the lowest concentration found to suppress growth – in the data set on Staphylococcus aureus [1] turned out to be 1.56 µg/mL (≈ 4.62 µM). For the same compound, the outcome in the data set on Staphylococcus aureus [2], in the data set with Staphylococcus aureus [3], with Staphylococcus aureus [4], with Staphylococcus aureus [6], in the data set on Staphylococcus aureus [11] and in the data set with Staphylococcus aureus [13] was Active. For the same compound, in the data set with Staphylococcus aureus [15], the result was Active. In [5], the AUC (commonly the area under the concentration-time curve, a measure of exposure) amounted to 173 µg·h/mL. The Activity was determined as 2.35 kg in the data set with Oryctolagus cuniculus [7], 2.36 kg in the data set on Oryctolagus cuniculus [8], 2.44 kg in the data set on Oryctolagus cuniculus [10] and 2.42 kg with Oryctolagus cuniculus [12]. The CFU with Oryctolagus cuniculus [9] is on record as 0.18 ×10⁷ /g. Further, the peak level in data set [14] (Cmax) was 27200 ng/mL. This compound also gave an AUC at 24 h in [16] of 334 µg·h/mL.

In turn, `CN[C@H](CC(C)C)C(=O)N[C@H]1C(=O)N[C@@H](CC(N)=O)C(=O)N[C@H]2C(=O)N[C@H]3C(=O)N[C@H](C(=O)N[C@H](C(=O)O)c4cc(O)cc(O)c4-c4cc3ccc4O)[C@H](O)c3ccc(c(Cl)c3)Oc3cc2cc(c3O[C@@H]2O[C@H](CO)[C@@H](O)[C@H](O)[C@H]2O[C@H]2C[C@](C)(N)[C@H](O)[C@H](C)O2)Oc2ccc(cc2Cl)[C@H]1O` [VANCOMYCIN] had an MBC against Staphylococcus aureus [1] of 6.25 µg/mL (≈ 4.31 µM). In addition, the MIC in the data set with Staphylococcus aureus [1] is 0.78 µg/mL (≈ 0.538 µM). In addition, the result with Staphylococcus aureus [17], with Staphylococcus aureus [19], in the data set with Staphylococcus aureus [20], in the data set with Staphylococcus aureus [21] and in the data set on Staphylococcus aureus [24] was Active. In data set [5], the AUC came to 58 µg·h/mL. Also, the results for the CFU in the data set with Staphylococcus aureus [18] and in the data set with Staphylococcus aureus [23] were 0.84 ×10⁷ /g and 0.64 ×10⁹ /g, respectively. In data set [22], the RatioAUC/MIC is 148. The Cmax (commonly the maximum level reached in the sampled fluid or tissue) in data set [14] came out at 6400 ng/mL.
